ChEMBL document CHEMBL1687822, “Inhibition of bacterial multidrug resistance by celecoxib, a cyclooxygenase-2 inhibitor” (2011)

Assays:
Staphylococcus aureus [1] = test: Antibacterial activity against methicillin-resistant Staphylococcus aureus ATCC 335913; format: functional
[2] = tested on: Mycolicibacterium smegmatis; test: Antibacterial activity against Mycobacterium smegmatis MC2 155 ATCC; format: functional
Staphylococcus aureus [3] = test: Antibacterial activity against Staphylococcus aureus ATCC 29213; format: functional
Staphylococcus aureus [4] = test: Inhibition of MDR1-mediated […] in Staphylococcus aureus ATCC 29213 assessed as fractional inhibitory concentration index after 24 to 48 hrs in presence of chloramphenicol
[5] = tested on: Mycolicibacterium smegmatis MC2 155; test: Inhibition of MDR1 in Mycobacterium smegmatis ATCC MC2155 assessed as increase in accumulation of kanamycin by EtBr efflux using flow cytometer
[6] = tested on: Mycolicibacterium smegmatis MC2 155; test: Inhibition of MDR1-mediated Mycobacterium smegmatis MC2 155 ATCC assessed as fractional inhibitory concentration index after 24 to 48 hrs in presence of ciprofloxacin
Staphylococcus aureus [7] = test: Inhibition of MDR1 in Staphylococcus aureus ATCC 29213 assessed as increase in accumulation of ciprofloxacin by EtBr efflux using flow cytometer
[8] = tested on: Mycolicibacterium smegmatis MC2 155; test: Inhibition of MDR1 in Mycobacterium smegmatis ATCC MC2155 assessed as increase in accumulation of chloramphenicol by EtBr efflux using flow cytometer
Staphylococcus aureus [9] = test: Inhibition of MDR1-mediated […] in Staphylococcus aureus ATCC 29213 assessed as fractional inhibitory concentration index after 24 to 48 hrs in presence of ampicillin
[10] = tested on: Mycolicibacterium smegmatis MC2 155; test: Inhibition of MDR1-mediated Mycobacterium smegmatis MC2 155 ATCC assessed as fractional inhibitory concentration index after 24 to 48 hrs in presence of kanamycin
[11] = tested on: Mycolicibacterium smegmatis MC2 155; test: Inhibition of MDR1 in Mycobacterium smegmatis ATCC MC2155 assessed as increase in accumulation of ampicillin by EtBr efflux using flow cytometer
Staphylococcus aureus [12] = test: Inhibition of MDR1 in Staphylococcus aureus ATCC 29213 assessed as increase in accumulation of kanamycin by EtBr efflux using flow cytometer
Staphylococcus aureus [13] = test: Inhibition of MDR1-mediated […] in Staphylococcus aureus ATCC 29213 assessed as fractional inhibitory concentration index after 24 to 48 hrs in presence of kanamycin
Staphylococcus aureus [14] = test: Inhibition of MDR1-mediated methicillin-resistant Staphylococcus aureus ATCC 335913 assessed as fractional inhibitory concentration index after 24 to 48 hrs in presence of chloramphenicol
Staphylococcus aureus [15] = test: Inhibition of MDR1 in Staphylococcus aureus ATCC 29213 assessed as increase in accumulation of ampicillin by EtBr efflux using flow cytometer
Staphylococcus aureus [16] = test: Inhibition of MDR1 in Staphylococcus aureus ATCC 29213 assessed as increase in accumulation of chloramphenicol by EtBr efflux using flow cytometer
Staphylococcus aureus [17] = test: Inhibition of MDR1 in methicillin-resistant Staphylococcus aureus ATCC 335913 assessed as increase in accumulation of ampicillin by EtBr efflux using flow cytometer
Staphylococcus aureus [18] = test: Inhibition of MDR1 in methicillin-resistant Staphylococcus aureus ATCC 335913 assessed as increase in accumulation of chloramphenicol by EtBr efflux using flow cytometer
Staphylococcus aureus [19] = test: Inhibition of MDR1-mediated methicillin-resistant Staphylococcus aureus ATCC 335913 assessed as fractional inhibitory concentration index after 24 to 48 hrs in presence of kanamycin
Staphylococcus aureus [20] = test: Inhibition of MDR1-mediated […] in Staphylococcus aureus ATCC 29213 assessed as fractional inhibitory concentration index after 24 to 48 hrs in presence of ciprofloxacin
Staphylococcus aureus [21] = test: Inhibition of MDR1 in methicillin-resistant Staphylococcus aureus ATCC 335913 assessed as increase in accumulation of kanamycin by EtBr efflux using flow cytometer
Staphylococcus aureus [22] = test: Inhibition of MDR1 in methicillin-resistant Staphylococcus aureus ATCC 335913 assessed as increase in accumulation of ciprofloxacin by EtBr efflux using flow cytometer
Staphylococcus aureus [23] = test: Inhibition of MDR1-mediated methicillin-resistant Staphylococcus aureus ATCC 335913 assessed as fractional inhibitory concentration index after 24 to 48 hrs in presence of ampicillin
[24] = tested on: Mycolicibacterium smegmatis MC2 155; test: Inhibition of MDR1-mediated Mycobacterium smegmatis MC2 155 ATCC assessed as fractional inhibitory concentration index after 24 to 48 hrs in presence of ampicillin
[25] = tested on: Mycolicibacterium smegmatis MC2 155; test: Inhibition of MDR1-mediated Mycobacterium smegmatis MC2 155 ATCC assessed as fractional inhibitory concentration index after 24 to 48 hrs in presence of chloramphenicol
Staphylococcus aureus [26] = test: Inhibition of MDR1-mediated methicillin-resistant Staphylococcus aureus ATCC 335913 assessed as fractional inhibitory concentration index after 24 to 48 hrs in presence of ciprofloxacin
[27] = tested on: Mycolicibacterium smegmatis MC2 155; test: Inhibition of MDR1 in Mycobacterium smegmatis ATCC MC2155 assessed as increase in accumulation of ciprofloxacin by EtBr efflux using flow cytometer

O=C(O)c1cn(C2CC2)c2cc(N3CCNCC3)c(F)cc2c1=O [CIPROFLOXACIN]
MIC (Staphylococcus aureus [1]): 0.25 µg/mL
MIC [2]: 0.5 µg/mL
MIC (Staphylococcus aureus [3]): 0.25 µg/mL

O=C(N[C@H](CO)[C@H](O)c1ccc([N+](=O)[O-])cc1)C(Cl)Cl [CHLORAMPHENICOL]
MIC (Staphylococcus aureus [1]): 100 µg/mL
MIC [2]: 10 µg/mL
MIC (Staphylococcus aureus [3]): 5 µg/mL

CC1(C)S[C@@H]2[C@H](NC(=O)[C@H](N)c3ccccc3)C(=O)N2[C@H]1C(=O)O [AMPICILLIN]
MIC (Staphylococcus aureus [1]): 200 µg/mL
MIC [2]: 250 µg/mL
MIC (Staphylococcus aureus [3]): 5 µg/mL

Cc1ccc(-c2cc(C(F)(F)F)nn2-c2ccc(S(N)(=O)=O)cc2)cc1 [CELECOXIB]
fractional inhibitory concentration index (FICI) (Staphylococcus aureus [4]): 0.281
MIC (Staphylococcus aureus [1]): > 100 µM
inhibition [5]: Dose-dependent effect
fractional inhibitory concentration index (FICI) [6]: 0.188
inhibition (Staphylococcus aureus [7]): Dose-dependent effect
MIC [2]: > 100 µM
inhibition [8]: Dose-dependent effect
fractional inhibitory concentration index (FICI) (Staphylococcus aureus [9]): 0.281
fractional inhibitory concentration index (FICI) [10]: 0.312
MIC (Staphylococcus aureus [3]): > 100 µM
inhibition [11]: Dose-dependent effect
inhibition (Staphylococcus aureus [12]): Dose-dependent effect
fractional inhibitory concentration index (FICI) (Staphylococcus aureus [13]): 0.531
fractional inhibitory concentration index (FICI) (Staphylococcus aureus [14]): 0.312
inhibition (Staphylococcus aureus [15]): Dose-dependent effect
inhibition (Staphylococcus aureus [16]): Dose-dependent effect
inhibition (Staphylococcus aureus [17]): Dose-dependent effect
inhibition (Staphylococcus aureus [18]): Dose-dependent effect
fractional inhibitory concentration index (FICI) (Staphylococcus aureus [19]): 0.312
fractional inhibitory concentration index (FICI) (Staphylococcus aureus [20]): 0.281
inhibition (Staphylococcus aureus [21]): Dose-dependent effect
inhibition (Staphylococcus aureus [22]): Dose-dependent effect
fractional inhibitory concentration index (FICI) (Staphylococcus aureus [23]): 0.312
fractional inhibitory concentration index (FICI) [24]: 0.0665
fractional inhibitory concentration index (FICI) [25]: 0.562
fractional inhibitory concentration index (FICI) (Staphylococcus aureus [26]): 0.312
inhibition [27]: Dose-dependent effect

NC[C@H]1O[C@H](O[C@H]2[C@H](O)[C@@H](O[C@H]3O[C@H](CO)[C@@H](O)[C@H](N)[C@H]3O)[C@H](N)C[C@@H]2N)[C@H](O)[C@@H](O)[C@@H]1O [KANAMYCIN]
MIC (Staphylococcus aureus [1]): 100 µg/mL
MIC [2]: 0.5 µg/mL
MIC (Staphylococcus aureus [3]): 10 µg/mL
